Laboratory results: the supplement of paper PMC13380429

How the values were obtained:
[1] = test system: A549-ACE2 infected with SARS-CoV-2; experiment: cell count relative to DMSO; higher = less toxic; settings: 24 h
Caco-2 [2] = experiment: cell viability relative to DMSO; higher = less toxic; settings: 72 h
Calu-3 [3] = experiment: as above; settings: 72 h
HepG2 [4] = experiment: as above; settings: 72 h
U2OS [5] = experiment: as above; settings: 72 h
Vero E6 [6] = experiment: as above; settings: 72 h
[7] = test system: A549-ACE2 infected with SARS-CoV-2; experiment: SARS-CoV-2 infection rate relative to DMSO; higher = more infection; settings: 24 h
A549-ACE2 [8] = experiment: phospholipidosis EC50; higher = less potent phospholipidosis inducer
A549-ACE2 [9] = experiment: drug-induced phospholipidosis relative to tamoxifen; higher = more phospholipidosis
[10] = test system: A549-ACE2 infected with SARS-CoV-2; experiment: morphology score (similarity to uninfected cells); higher = more like uninfected cells; settings: 24 h
Caco-2 [11] = experiment: relative viability EC50 (midpoint between 100% and the lowest measured viability); higher = less toxic; settings: 72 h
Calu-3 [12] = experiment: as above; settings: 72 h
U2OS [13] = experiment: as above; settings: 72 h
Vero E6 [14] = experiment: as above; settings: 72 h
Caco-2 [15] = experiment: drug sensitivity score (DSS) for viability; higher = more toxic; extreme values may be limits of the assay; settings: 72 h
Calu-3 [16] = experiment: as above; settings: 72 h
HepG2 [17] = experiment: as above; settings: 72 h
U2OS [18] = experiment: as above; settings: 72 h
Vero E6 [19] = experiment: as above; settings: 72 h
HepG2 [20] = experiment: relative viability EC50 (midpoint between 100% and the lowest measured viability); higher = less toxic; settings: 72 h

SMILES: Cc1[nH]c(/C=C2\C(=O)Nc3ccc(S(=O)(=O)N(C)c4cccc(Cl)c4)cc32)c(C)c1C(=O)N1CCN(C)CC1
- cell count ([1]; 0.3 µM): 94%
- cell count ([1]; 3 µM): 105%
- cell count ([1]; 10 µM): 70%
- cell count ([1]; 30 µM): 85%
- cell viability (Caco-2 [2]; 1 nM): 96%
- cell viability (Caco-2 [2]; 10 nM): 98.5%
- cell viability (Caco-2 [2]; 100 nM): 99.9%
- cell viability (Caco-2 [2]; 1000 nM): 97.5%
- cell viability (Caco-2 [2]; 10000 nM): 85.2%
- cell viability (Calu-3 [3]; 1 nM): 106%
- cell viability (Calu-3 [3]; 10 nM): 93.5%
- cell viability (Calu-3 [3]; 100 nM): 112%
- cell viability (Calu-3 [3]; 1000 nM): 101%
- cell viability (Calu-3 [3]; 10000 nM): 83.8%
- cell viability (HepG2 [4]; 1 nM): 106%
- cell viability (HepG2 [4]; 10 nM): 105%
- cell viability (HepG2 [4]; 100 nM): 93.5%
- cell viability (HepG2 [4]; 1000 nM): 103%
- cell viability (HepG2 [4]; 10000 nM): 66.5%
- cell viability (U2OS [5]; 1 nM): 104%
- cell viability (U2OS [5]; 10 nM): 98.2%
- cell viability (U2OS [5]; 100 nM): 106%
- cell viability (U2OS [5]; 1000 nM): 101%
- cell viability (U2OS [5]; 10000 nM): 91%
- cell viability (Vero E6 [6]; 1 nM): 101%
- cell viability (Vero E6 [6]; 10 nM): 102%
- cell viability (Vero E6 [6]; 100 nM): 94.3%
- cell viability (Vero E6 [6]; 1000 nM): 107%
- cell viability (Vero E6 [6]; 10000 nM): 88.1%
- SARS-CoV-2 infection rate ([7]; 0.3 µM): 89%
- SARS-CoV-2 infection rate ([7]; 3 µM): 46%
- SARS-CoV-2 infection rate ([7]; 10 µM): 20%
- SARS-CoV-2 infection rate ([7]; 30 µM): 34%
- phospholipidosis EC50 (A549-ACE2 [8]; 24 h): 4.77 µM
- phospholipidosis EC50 (A549-ACE2 [8]; 48 h): 3.94 µM
- drug-induced phospholipidosis (A549-ACE2 [9]; 0.3 µM, 24 h): 22.5%
- drug-induced phospholipidosis (A549-ACE2 [9]; 0.3 µM, 48 h): 12.7%
- drug-induced phospholipidosis (A549-ACE2 [9]; 0.3 µM, 72 h): 9.3%
- drug-induced phospholipidosis (A549-ACE2 [9]; 0.833333 µM, 24 h): 42.3%
- drug-induced phospholipidosis (A549-ACE2 [9]; 0.833333 µM, 48 h): 30.6%
- drug-induced phospholipidosis (A549-ACE2 [9]; 0.833333 µM, 72 h): 20.7%
- drug-induced phospholipidosis (A549-ACE2 [9]; 3.33333 µM, 24 h): 133%
- drug-induced phospholipidosis (A549-ACE2 [9]; 3.33333 µM, 48 h): 129%
- drug-induced phospholipidosis (A549-ACE2 [9]; 3.33333 µM, 72 h): 128%
- drug-induced phospholipidosis (A549-ACE2 [9]; 6.66667 µM, 24 h): 230%
- drug-induced phospholipidosis (A549-ACE2 [9]; 10 µM, 24 h): 269%
- drug-induced phospholipidosis (A549-ACE2 [9]; 10 µM, 48 h): 333%
- drug-induced phospholipidosis (A549-ACE2 [9]; 30 µM, 24 h): 324%
- drug-induced phospholipidosis (A549-ACE2 [9]; 30 µM, 48 h): 340%
- morphology score ([10]; 0.3 µM): 0.29
- morphology score ([10]; 3 µM): 0.61
- morphology score ([10]; 10 µM): 0.45
- morphology score ([10]; 30 µM): 0.53
- relative viability EC50 (Caco-2 [11]): > 10 µM
- relative viability EC50 (Calu-3 [12]): > 10 µM
- relative viability EC50 (U2OS [13]): > 10 µM
- relative viability EC50 (Vero E6 [14]): > 10 µM
- drug sensitivity score (Caco-2 [15]): 0.5
- drug sensitivity score (Calu-3 [16]): 0.3
- drug sensitivity score (HepG2 [17]): 1.3
- drug sensitivity score (U2OS [18]): 0
- drug sensitivity score (Vero E6 [19]): 0

SMILES: C=CCN(C)CCCCCCOc1ccc(C(=O)c2ccc(Br)cc2)c(F)c1 [Ro-48-8071]
- cell count ([1]; 0.3 µM): 103%
- cell count ([1]; 3 µM): 114%
- cell count ([1]; 10 µM): 117%
- cell count ([1]; 30 µM): 70%
- cell viability (Caco-2 [2]; 1 nM): 97.5%
- cell viability (Caco-2 [2]; 10 nM): 101%
- cell viability (Caco-2 [2]; 100 nM): 102%
- cell viability (Caco-2 [2]; 1000 nM): 81.7%
- cell viability (Caco-2 [2]; 10000 nM): 45.9%
- cell viability (Calu-3 [3]; 1 nM): 95.1%
- cell viability (Calu-3 [3]; 10 nM): 95.7%
- cell viability (Calu-3 [3]; 100 nM): 97.4%
- cell viability (Calu-3 [3]; 1000 nM): 99.7%
- cell viability (Calu-3 [3]; 10000 nM): 55.3%
- cell viability (HepG2 [4]; 1 nM): 104%
- cell viability (HepG2 [4]; 10 nM): 98.3%
- cell viability (HepG2 [4]; 100 nM): 92.1%
- cell viability (HepG2 [4]; 1000 nM): 93.7%
- cell viability (HepG2 [4]; 10000 nM): 34%
- cell viability (U2OS [5]; 1 nM): 98.6%
- cell viability (U2OS [5]; 10 nM): 102%
- cell viability (U2OS [5]; 100 nM): 93.5%
- cell viability (U2OS [5]; 1000 nM): 96%
- cell viability (U2OS [5]; 10000 nM): 79%
- cell viability (Vero E6 [6]; 1 nM): 104%
- cell viability (Vero E6 [6]; 10 nM): 100%
- cell viability (Vero E6 [6]; 100 nM): 100%
- cell viability (Vero E6 [6]; 1000 nM): 94.6%
- cell viability (Vero E6 [6]; 10000 nM): 84.5%
- SARS-CoV-2 infection rate ([7]; 0.3 µM): 102%
- SARS-CoV-2 infection rate ([7]; 3 µM): 59%
- SARS-CoV-2 infection rate ([7]; 10 µM): 25%
- SARS-CoV-2 infection rate ([7]; 30 µM): 38%
- phospholipidosis EC50 (A549-ACE2 [8]; 24 h): 3.35 µM
- phospholipidosis EC50 (A549-ACE2 [8]; 48 h): 4.65 µM
- phospholipidosis EC50 (A549-ACE2 [8]; 72 h): 5.61 µM
- drug-induced phospholipidosis (A549-ACE2 [9]; 0.3 µM, 24 h): 2.62%
- drug-induced phospholipidosis (A549-ACE2 [9]; 0.3 µM, 48 h): 5.45%
- drug-induced phospholipidosis (A549-ACE2 [9]; 0.3 µM, 72 h): 4.46%
- drug-induced phospholipidosis (A549-ACE2 [9]; 0.833333 µM, 24 h): 7.33%
- drug-induced phospholipidosis (A549-ACE2 [9]; 0.833333 µM, 48 h): 7.84%
- drug-induced phospholipidosis (A549-ACE2 [9]; 0.833333 µM, 72 h): 5.92%
- drug-induced phospholipidosis (A549-ACE2 [9]; 3.33333 µM, 24 h): 44.1%
- drug-induced phospholipidosis (A549-ACE2 [9]; 3.33333 µM, 48 h): 36.4%
- drug-induced phospholipidosis (A549-ACE2 [9]; 3.33333 µM, 72 h): 27.7%
- drug-induced phospholipidosis (A549-ACE2 [9]; 6.66667 µM, 24 h): 86.2%
- drug-induced phospholipidosis (A549-ACE2 [9]; 6.66667 µM, 48 h): 96.4%
- drug-induced phospholipidosis (A549-ACE2 [9]; 6.66667 µM, 72 h): 95.3%
- drug-induced phospholipidosis (A549-ACE2 [9]; 10 µM, 24 h): 90.2%
- drug-induced phospholipidosis (A549-ACE2 [9]; 10 µM, 48 h): 115%
- drug-induced phospholipidosis (A549-ACE2 [9]; 10 µM, 72 h): 127%
- drug-induced phospholipidosis (A549-ACE2 [9]; 30 µM, 24 h): 82%
- morphology score ([10]; 0.3 µM): -0.04
- morphology score ([10]; 3 µM): 0.67
- morphology score ([10]; 10 µM): 0.73
- morphology score ([10]; 30 µM): 0.1
- relative viability EC50 (Caco-2 [11]): 1.31 µM
- relative viability EC50 (HepG2 [20]): 2.38 µM
- relative viability EC50 (U2OS [13]): > 10 µM
- relative viability EC50 (Vero E6 [14]): > 10 µM
- drug sensitivity score (Caco-2 [15]): 5.5
- drug sensitivity score (Calu-3 [16]): 2.3
- drug sensitivity score (HepG2 [17]): 4.6
- drug sensitivity score (U2OS [18]): 1.1
- drug sensitivity score (Vero E6 [19]): 0.7
